Assay results published in article PMC7377239, “Cardiovascular Effects of Polychlorinated Biphenyls and Their Major Metabolites” (Environmental Health Perspectives, 2020).
Like-named read-outs stand apart in the source and are kept apart here.

Assays:
HUVECs = test: High-content imaging cytotoxicity in HUVECs, 24 h; type: cell-based, human; conditions: Homo sapiens, HUVEC, 24 h; for viability at 0.01 µM / activity at 0.01 µM / viability at 0.1 µM / activity at 0.1 µM / viability at 1 µM / activity at 1 µM / viability at 10 µM / activity at 10 µM / viability at 100 µM / activity at 100 µM: 0.00 µM = 100.00; for viability at 0.1 µM / activity at 0.1 µM: 0.10 µM
Summary of the method: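 HUVECs (passages 1–5) grown to monolayer over 3–5 d, then exposed 24 h at 37°C, 5% CO2; stained with Hoechst 33342, MitoTracker Orange and calcein AM and imaged at 10×. Readouts normalized to 0.5% DMSO vehicle, four-parameter logistic fit; POD at one-SD cutoff, 100μM assigned when no response.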

[1] = test system: iCell endothelial cells (human iPSC-derived ECs); test: Tube formation (tubulogenesis) assay in iCell endothelial cells, 18 h; type: cell-based; conditions: Homo sapiens, Endothelial cell, 18 hr; for activity at 0.1 µM: 0.10 µM
Summary of the method: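 iCell ECs (passages 1–5) seeded 7,500 cells/well on reduced-growth-factor Geltrex in starvation medium, exposed overnight at 37°C to compounds in triplicate concentration–response (0.5% DMSO vehicle). Calcein AM staining, 4× imaging, angiogenesis image analysis; readouts normalized to vehicle, four-parameter logistic fit, POD at 1 SD of vehicle; 100 μM assigned NOAEL if no response.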

[2] = HUVECs, 24 hr, read-out: huvec.cyto.24hr
[3] = HUVECs, 24 hr, read-out: huvec.mito.24hr
[4] = HUVECs, 24 hr, read-out: huvec.mitoint.24hr
[5] = HUVECs, 24 hr, read-out: huvec.nma.24hr
[6] = HUVECs, 24 hrs, read-out: huvec.tc.24hrs
[7] = iPSC-EC tube formation, 0.00 µM control = 100.00, read-out: endo.mtl.18hr
[8] = iPSC-EC tube formation, 0.00 µM control = 100.00, read-out: endo.tlps.18hr
[9] = iPSC-EC tube formation, 0.00 µM control = 100.00, read-out: endo.tta.18hr
[10] = iPSC-EC tube formation, 0.00 µM control = 100.00, read-out: endo.ttl.18hr

Clc1cccc(-c2cccc(Cl)c2)c1 [PCB11]
viability at 0.01 µM (HUVECs; [2]): 91.9%
activity at 0.01 µM (HUVECs; [3]): 90.9%
activity at 0.01 µM (HUVECs; [4]): 90.3%
activity at 0.01 µM (HUVECs; [5]): 99.1%
viability at 0.1 µM (HUVECs; [2]): 99.2%
activity at 0.1 µM (HUVECs; [3]): 97.8%
activity at 0.1 µM (HUVECs; [4]): 99.8%
activity at 0.1 µM (HUVECs; [5]): 99.1%
viability at 1 µM (HUVECs; [2]): 96.6%
activity at 1 µM (HUVECs; [3]): 96.2%
activity at 1 µM (HUVECs; [4]): 95.2%
activity at 1 µM (HUVECs; [5]): 98.1%
viability at 10 µM (HUVECs; [2]): 95%
activity at 10 µM (HUVECs; [3]): 93.9%
activity at 10 µM (HUVECs; [4]): 89.1%
activity at 10 µM (HUVECs; [5]): 96.6%
viability at 100 µM (HUVECs; [2]): 44.7%
activity at 100 µM (HUVECs; [3]): 22.1%
activity at 100 µM (HUVECs; [4]): 15.7%
activity at 100 µM (HUVECs; [5]): 54.9%
minimal effective concentration (HUVECs; HUVECs, 24 hr, top concentration 100.00 µM, read-out: huvec.cyto.24hr POD): 11.2 µM
minimal effective concentration (HUVECs; HUVECs, 24 hr, top concentration 100.00 µM, read-out: huvec.mito.24hr POD): 9.68 µM
minimal effective concentration (HUVECs; HUVECs, 24 hr, top concentration 100.00 µM, read-out: huvec.mitoint.24hr POD): 7.62 µM
minimal effective concentration (HUVECs; HUVECs, 24 hr, top concentration 100.00 µM, read-out: huvec.nma.24hr POD): 9.3 µM
viability at 0.01 µM (HUVECs; [6]): 91.9%
viability at 0.1 µM (HUVECs; [6]): 99.2%
viability at 1 µM (HUVECs; [6]): 96.6%
viability at 10 µM (HUVECs; [6]): 95%
viability at 100 µM (HUVECs; [6]): 44.9%
minimal effective concentration (HUVECs; HUVECs, 24 hrs, top concentration 100.00 µM, read-out: huvec.tc.24hrs POD): 11.2 µM
activity at 0.01 µM [1, 7]: 98.5%
activity at 0.01 µM [1, 8]: 118%
activity at 0.01 µM [1, 9]: 148%
activity at 0.01 µM [1, 10]: 143%
activity at 0.1 µM [1, 7]: 102%
activity at 0.1 µM [1, 8]: 117%
activity at 0.1 µM [1, 9]: 118%
activity at 0.1 µM [1, 10]: 116%
activity at 1 µM [1, 7]: 105%
activity at 1 µM [1, 8]: 125%
activity at 1 µM [1, 9]: 132%
activity at 1 µM [1, 10]: 126%
activity at 10 µM [1, 7]: 91.6%
activity at 10 µM [1, 8]: 140%
activity at 10 µM [1, 9]: 80.8%
activity at 10 µM [1, 10]: 80.3%
activity at 100 µM [1, 7]: 105%
activity at 100 µM [1, 8]: 114%
activity at 100 µM [1, 9]: 150%
activity at 100 µM [1, 10]: 150%
minimal effective concentration ([1]; iPSC-EC tube formation, top concentration 100.00 µM, read-out: endo.mtl.18hr POD): 100 µM
minimal effective concentration ([1]; iPSC-EC tube formation, top concentration 100.00 µM, read-out: endo.tlps.18hr POD): 100 µM
minimal effective concentration ([1]; iPSC-EC tube formation, top concentration 100.00 µM, read-out: endo.tta.18hr POD): 100 µM
minimal effective concentration ([1]; iPSC-EC tube formation, top concentration 100.00 µM, read-out: endo.ttl.18hr POD): 100 µM

Clc1cc(Cl)c(-c2cc(Cl)c(Cl)cc2Cl)cc1Cl [PCB 153, 2,2′,4,4′,5,5′-hexachlorobiphenyl]
minimal effective concentration (HUVECs; cyto, 24 hr, read-out: POD huvec.cyto.24hr): 0.0171 µM
minimal effective concentration (HUVECs; mito, 24 hr, read-out: POD huvec.mito.24hr): 0.75 µM
minimal effective concentration (HUVECs; mitoint, 24 hr, read-out: POD huvec.mitoint.24hr): 0.83 µM
minimal effective concentration (HUVECs; nma, 24 hr, read-out: POD huvec.nma.24hr): 1.01 µM
minimal effective concentration (HUVECs; tc, 24 hr, read-out: POD huvec.tc.24hr): 0.0171 µM
minimal effective concentration ([1]; endothelial cells (endo), tube formation mtl, read-out: POD endo.mtl.18hr): 0.007 µM
minimal effective concentration ([1]; endothelial cells (endo), tube formation tlps, read-out: POD endo.tlps.18hr): 1.93 µM
minimal effective concentration ([1]; endothelial cells (endo), tube formation tta, read-out: POD endo.tta.18hr): 3.83 µM
minimal effective concentration ([1]; endothelial cells (endo), tube formation ttl, read-out: POD endo.ttl.18hr): 0.58 µM
